These results are taken from ChEMBL document CHEMBL3046082, “Control of Rice Blast Disease by Submerged Treatment with SSF-126” (J Pestic Sci, 1997).

A value given as a limit tells only on which side of the number the result lay.

The test system of data set [1] is Leaf. Kind of data set: Drug level in Oryza sativa (rice) plant leaf at 18 g/a after 10 days. Type of data set: ADME. The settings on record: 240 h.
Data set [2] deals with Leaf. Description: Drug level in Oryza sativa (rice) plant leaf at 18 g/a up to 42 days. Type of data set: ADME. The note with it: 1008 h.
In data set [3] the test system is Root. Kind of data set: Drug level in Oryza sativa (rice) plant root at 18 g/a up to 42 days. Type of data set: ADME. The note with it: 1008 h.
In data set [4] the test system is Pyricularia oryzae. Description: Antifungal activity against Magnaporthe oryzae in fourth-leaf stage of rice plant assessed as appressorial formation at 9 g/a after 24 hr (reference value: 90.4 +/- 5.6%). It counts as functional.
Data set [5] has as its system Pyricularia oryzae. Kind of data set: Antifungal activity against Magnaporthe oryzae in fourth-leaf stage of rice plant assessed as appressorial formation at 18 g/a after 24 hr (reference value: 90.4 +/- 5.6%). It counts as functional.
Data set [6] deals with Pyricularia oryzae. Description: Antifungal activity against Magnaporthe oryzae in fourth-leaf stage of rice plant assessed as appressorial formation at 36 g/a after 24 hr (reference value: 90.4 +/- 5.6%). It counts as functional.
Data set [7] has as its system Pyricularia oryzae. Description: Antifungal activity against Magnaporthe oryzae in fourth-leaf stage of rice plant assessed as spore germination at 9 g/a after 24 hr (reference value: 97.2 +/- 2.7%). It counts as functional.
In data set [8] the test system is Pyricularia oryzae. Kind of data set: Antifungal activity against Magnaporthe oryzae in fourth-leaf stage of rice plant assessed as spore germination at 18 g/a after 24 hr (reference value: 97.2 +/- 2.7%). It counts as functional.
In data set [9] the test system is Pyricularia oryzae. Kind of data set: Antifungal activity against Magnaporthe oryzae in fourth-leaf stage of rice plant assessed as spore germination at 36 g/a after 24 hr (reference value: 97.2 +/- 2.7%). It counts as functional.

Consider `CNC(=O)/C(=N\OC)c1ccccc1Oc1ccccc1`, for which the Drug uptake is given as 20 ppm in data set [1], under 2 ppm in [2] and under 2 ppm in data set [3]. Moreover, the Activity in data set [4] turned out to be 92.2%; in data set [5] it was 91.2%; in data set [6], 91.9%; in [7], 97.1%; in data set [8], 96.5%; in data set [9], 96.4%.
